Results as given in patent EP0610475B1, “NERVE-DERIVED TRANSG[…] USEFUL FOR INDUCING NERVE REGENERATION” (YEDA RESEARCH AND DEVELOPMENT COMPANY, LTD., priority 1992, dated 1994).
Where two headings read alike, the source gives them in different places.

System: nerve-derived transglutaminase (TGN) purified from regenerating fish optic nerve, Carp (Cyprinus carpio), 55 kDa
Procedure: The incorporation of radioactive putrescine to a carrier protein is an assay characteristic of enzymes of the transglutaminase family. Any carrier protein that has lysine residues may be used in the assay, such as casein, bovine serum albumin, etc.
In this example, activity characteristic of the nerve-derived transglutaminase was measured by incorporation of [^14C)putrescine into N,N-dimethylcasein (Chakrabarty et al., 1987). The purified TGN enzyme eluted from the TG-Ab affinity column with glycine in Example 3 was dialyzed for 2 hours in the presence of N,N-dimethylcasein (1 mg/ml), before being added to the reaction mixture. The reaction was initiated by addition of […] TGN ([…]), followed by incubation for 20 min at 37°C and terminated by the addition of ice-cold trichloroacetic acid (TCA; final concentration, 5%).
The enzyme activity was titrated with respect to temperature and pH and substrate concentration. […] Titration was carried out by measuring incorporation of [^14C]putrescine to caseine in the presence of TGN.

## NCCCCN [putrescine]
Incorporation of [^14C]putrescine to caseine in the presence of TGN, calculated from titration of activity as a function of substrate concentration, 20 min at 37°C
  Km: 0.55 µM
read-out: Km in the incorporation of putrescine, calculated as a function of substrate, list of TGN characteristics, unit inferred
  Km: 0.55 µM
